We go through 13 compounds from US8148404B2, “Modulators of CB1 receptors” (7TM Pharma A/S, priority 2006, dated 2012).

The assay deals with T1, human CB1 receptor (Homo sapiens, UniProt P21554).
T1 construct: expressed in transfected cells; membranes used
T1 sequence (P21554 whole entry): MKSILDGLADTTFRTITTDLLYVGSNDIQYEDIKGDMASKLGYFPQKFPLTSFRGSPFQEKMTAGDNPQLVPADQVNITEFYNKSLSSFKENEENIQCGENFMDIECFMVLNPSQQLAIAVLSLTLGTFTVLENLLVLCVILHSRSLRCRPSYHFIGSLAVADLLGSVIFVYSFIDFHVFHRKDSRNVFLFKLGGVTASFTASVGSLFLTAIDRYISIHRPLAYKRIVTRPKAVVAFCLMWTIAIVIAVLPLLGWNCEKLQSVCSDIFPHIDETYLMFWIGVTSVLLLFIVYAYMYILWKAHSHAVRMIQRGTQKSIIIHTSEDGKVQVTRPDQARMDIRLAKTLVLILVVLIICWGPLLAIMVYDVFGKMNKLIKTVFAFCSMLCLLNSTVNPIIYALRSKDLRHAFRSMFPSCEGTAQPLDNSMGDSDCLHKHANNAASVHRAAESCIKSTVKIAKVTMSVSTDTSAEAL
Put plainly: Cannabinoid Receptor-1 functional assay: inhibition of CP55940-induced [35S]GTPγS binding to membranes of CHO-K1 cells expressing human CB1. The note with it: 3 nM CP55940, [35S]GTPγS SPA, hCB1 membranes; read-out: IC50 value for antagonizing a CB1 receptor agonist. The class given is biochemical. The text has this: Transfection and Cell Culture—The cDNA encoding the human CB1 (Cannabinoid Receptor-1) receptor (GenBank accession number NM_016083) was cloned from a human adipose tissue cDNA library and cloned into the eukaryotic expression vector pcDNA3.1 (Invitrogen).
Chinese Hamster Ovary cells (CHO-K1) stably expressing recombinant human CB1 were generated by transfecting the plasmid containing the coding sequence of the human CB1 receptor in CHO-K1 cells, using lipofectamin, according to the manufacturer instructions. Resistant clones were selected in the presence of 600 μg/ml G418 (Life technology). Stably transfected CHO-K1 cells were maintained in Ham's F-12 culture medium (Invitrogen), supplemented with 10% fetal calf serum (Invitrogen), 100 U/ml penicillin, 100 μg/ml streptomycin (Life Technology), and 600 μg/ml G418.
Functional activities of the above examples of compounds of the invention were assessed in vitro by measuring their ability to inhibit CP55940-induced [^35S]GTPγS binding to membranes prepared from CHO-K1 cells expressing the human CB1 receptor (described in Transfection and Cell Culture). CP55940 is a well known non-selective CB1 and CB2 receptor agonist (e.g Felder et al., 1995, Molecular Pharmacology, (48) 443-50). Membranes were prepared by a standard procedure. Briefly, cells were harvested using 10 mM EDTA and collected by centrifugation. Pelleted cells were homogenized in ice-cold 20 mM Hepes (pH 7.4), 10 mM EDTA and protease inhibitors (Complete protease inhibitor cocktail tablet, Roche) using an Ultra Turrax Homogenizer. The homogenate was centrifuged at 14 000 rpm for 45 min. at 4° C. The resultant pellet was resuspended in the same buffer but with only 0.1 mM EDTA and was again centrifuged at 14 000 rpm for 45 min. at 4° C. The resulting pellet (membranes) was resuspended in 20 mM Hepes (pH 7.4), 0.1 mM EDTA, 2 mM MgCl2 and protease inhibitors and protein concentration was determined by Micro BCA Protein Assay Reagent Kit (Pierce Biotechnology) according to the manufacturer instructions. The [^35S]GTPγS SPA (Scintillation Proximity Assay) binding assay was performed by incubating 5 μg/well hCB1-membranes with 1 nM [^35S]GTPγS (Perkin Elmer—NEG 030H) in the presence of 3 nM of CP55940 and various concentrations of the test compounds at room temperature for 1 hr in 96-well microtiter plates. 0.4 mg/well SPA beads (PVT-WGA; RPNQ0001 Amersham Pharmacia Biotech) were then added and the incubation continued for further 30 min. on an orbital shaker. The assay buffer contained 50 mM HEPES (pH 7.5), 50 mM NaCl, 2.5 mM MgCl2, 0.1% BSA, 1 μM GDP and 100 μg/ml Saponin. Microtiter plates were centrifuged at 1500 rpm for 5 min. and radioactivity was read immediately using a Topcounter (PerkinElmer Life Sciences). Data were analyzed and IC50 values determined by non-linear regression using the Prism software (GraphPad Software, San Diego).
Consider `N#Cc1ccc(C2CCN(C(=O)c3nn(-c4ccccc4Cl)c(-c4ccc(Cl)cc4)c3CC(=O)O)CC2)cc1` [[1.45], {1-(2-Chloro-phenyl)-5-(4-chloro-phenyl)-3-[4-(4-cyano-phenyl)-piperidine-1-carbonyl]-1H-pyrazol-4-yl}-acetic acid], for which the IC50 (usually the midpoint of a concentration-inhibition curve) was under 300 nM.

Turning to `O=C(O)Cc1c(C(=O)N2CCCC2)nn(-c2ccccc2Cl)c1-c1ccc(Cl)cc1` [[1.46], [1-(2-Chloro-phenyl)-5-(4-chloro-phenyl)-3-(pyrrolidine-1-carbonyl)-1H-pyrazol-4-yl]-acetic acid], the IC50 is 300 to 3000 nM.

In the case of `O=C(O)Cc1c(C(=O)N2CCCCC2)nn(-c2ccccc2Cl)c1-c1ccc(Cl)cc1` [[1.47], [1-(2-Chloro-phenyl)-5-(4-chloro-phenyl)-3-(piperidine-1-carbonyl)-1H-pyrazol-4-yl]-acetic acid], the IC50 was 300 to 3000 nM.

Take `O=C(O)Cc1c(C(=O)N2CCOCC2)nn(-c2ccccc2Cl)c1-c1ccc(Cl)cc1` [[1.48], [1-(2-Chloro-phenyl)-5-(4-chloro-phenyl)-3-(morpholine-4-carbonyl)-1H-pyrazol-4-yl]-acetic acid]: the IC50 lay within 3000 to 10000 nM.

For the compound `O=C(O)Cc1c(C(=O)N2CCC(OCc3ccccc3)CC2)nn(-c2ccccc2Cl)c1-c1ccc(Cl)cc1` [[1.49], [3-(4-Benzyloxy-piperidine-1-carbonyl)-1-(2-chloro-phenyl)-5-(4-chloro-phenyl)-1H-pyrazol-4-yl]-acetic acid], the concentration for half-maximal inhibition (IC50) is under 300 nM.

As to `O=C(O)Cc1c(C(=O)N2CCC(CO)(c3ccccc3)CC2)nn(-c2ccccc2Cl)c1-c1ccc(Cl)cc1` [[1.50], [1-(2-Chloro-phenyl)-5-(4-chloro-phenyl)-3-(4-hydroxymethyl-4-phenyl-piperidine-1-carbonyl)-1H-pyrazol-4-yl]-acetic acid], the IC50 was under 300 nM.

`N#Cc1ccccc1C1CCN(C(=O)c2nn(-c3ccccc3Cl)c(-c3ccc(Cl)cc3)c2CC(=O)O)CC1` [[1.51], {1-(2-Chloro-phenyl)-5-(4-chloro-phenyl)-3-[4-(2-cyano-phenyl)-piperidine-1-carbonyl]-1H-pyrazol-4-yl}-acetic acid]: the half-maximal inhibitory concentration (IC50) is under 300 nM.

As to `O=C(O)Cc1c(C(=O)N2CCC(c3ccccc3Cl)CC2)nn(-c2ccccc2Cl)c1-c1ccc(Cl)cc1` [[1.54], {1-(2-Chloro-phenyl)-5-(4-chloro-phenyl)-3-[4-(2-chloro-phenyl)-piper-idine-1-carbonyl]-1H-pyrazol-4-yl}-acetic acid], the IC50 was under 300 nM.

For the compound `O=C(O)Cc1c(C(=O)N2CCC(c3cccc(F)c3)C2)nn(-c2ccccc2Cl)c1-c1ccc(Cl)cc1` (stereo not shown) [[1.55], {1-(2-Chloro-phenyl)-5-(4-chloro-phenyl)-3-[3-(3-fluoro-phenyl)-pyrrolidine-1-carbonyl]-1H-pyrazol-4-yl}-acetic acid], the half-inhibitory concentration (IC50) is under 300 nM.

Consider `CS(=O)(=O)c1cccc(C2CCN(C(=O)c3nn(-c4ccccc4Cl)c(-c4ccc(Cl)cc4)c3CC(=O)O)CC2)c1` [[1.57], {1-(2-Chloro-phenyl)-5-(4-chloro-phenyl)-3-[4-(3-methylsulfonyl-phenyl)-piperidine-1-carbonyl]-1H-pyrazol-4-yl}-acetic acid], for which the IC50 is 300 to 3000 nM.

In the case of `O=C(O)Cc1c(C(=O)N2CCC(Oc3ccccc3)CC2)nn(-c2ccccc2Cl)c1-c1ccc(Cl)cc1` [[1.58]], the IC50 is under 300 nM.

Regarding `O=C(O)Cc1c(C(=O)N2CCC(Oc3ccc(Cl)cc3)CC2)nn(-c2ccccc2Cl)c1-c1ccc(Cl)cc1` [[1.59], {1-(2-Chloro-phenyl)-5-(4-chloro-phenyl)-3-[4-(4-chlorophenoxy)-piperidine-1-carbonyl]-1H-pyrazol-4-yl}-acetic acid], the IC50 was under 300 nM.

As to `O=C(O)Cc1c(C(=O)N2CC(Oc3ccc(F)cc3)C2)nn(-c2ccccc2Cl)c1-c1ccc(Cl)cc1` [[1.60], {1-(2-Chloro-phenyl)-5-(4-chloro-phenyl)-3-[3-(4-fluorophenoxy)-azetidine-1-carbonyl]-1H-pyrazol-4-yl}-acetic acid], the half-inhibitory concentration (IC50) was under 300 nM.
